# Columns and labels:
# Experiment in all cases: relative viability (nuclei count vs DMSO), 5 days (fraction); higher = more cells survive
# [1] = compound: C1CNCCC1C2=CC(=NN2)C3=CC=NC=C3 + COc1cccc2cc(-c3nc([C@H]4CC[C@H](C(=O)O)CC4)n4ncnc(N)c34)[nH]c12 [OSI-027] (partner 0.5 µM)
# Summary of the method: (§1)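 Five library-drug doses in √10 steps were combined with a fixed anchor-drug dose, or a single drug was given alone, by pin tool to lung cancer cell lines in 1536-well plates the day after seeding. Nuclei were stained and counted after 5 days. Relative viability is the nuclei count in treated wells over that in vehicle wells, taken as the median of duplicate plates.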
# [2] = compound: C1CNCCC1C2=CC(=NN2)C3=CC=NC=C3 + N=C(N)NC(=N)NCCc1ccccc1 [Phenformin] (partner 250 µM)
# Summary of the method: as §1
# [3] = compound: C[C@@H](N)c1ccc(C(=O)Nc2ccnc3[nH]ccc23)cc1 + CC(C)C[C@H](NC(=O)[C@H](Cc1ccccc1)NC(=O)c1cnccn1)B(O)O [Bortezomib] (partner 0.002 µM)
# Summary of the method: as §1
# Tanzisertib + Bortezomib = compound: O[C@H]1CC[C@H](Nc2ncc3nc(Nc4c(F)cc(F)cc4F)n([C@H]4CCOC4)c3n2)CC1 [Tanzisertib] + CC(C)C[C@H](NC(=O)[C@H](Cc1ccccc1)NC(=O)c1cnccn1)B(O)O [Bortezomib] (partner 0.002 µM)
# Summary of the method: as §1
Cell Line,relative viability ([1]; first compound 0.08 µM),relative viability ([1]; first compound 0.8 µM),relative viability ([1]; first compound 2.53 µM),relative viability ([1]; first compound 8 µM),relative viability ([2]; first compound 0.08 µM),relative viability ([2]; first compound 0.8 µM),relative viability ([2]; first compound 2.53 µM),relative viability ([2]; first compound 8 µM),relative viability ([3]; first compound 0.04 µM),relative viability ([3]; first compound 0.1265 µM),relative viability ([3]; first compound 0.4 µM),relative viability ([3]; first compound 1.265 µM),relative viability ([3]; first compound 4 µM),relative viability (Tanzisertib + Bortezomib; first compound 0.08 µM),relative viability (Tanzisertib + Bortezomib; first compound 0.253 µM),relative viability (Tanzisertib + Bortezomib; first compound 0.8 µM),relative viability (Tanzisertib + Bortezomib; first compound 2.53 µM),relative viability (Tanzisertib + Bortezomib; first compound 8 µM)
201T,0.72,0.718,0.832,0.842,0.434,0.464,0.461,0.415,1.09,1.08,1.11,1.17,1.25,1.08,1.17,1.1,1.12,1.08
A549,–,–,–,–,0.107,0.153,0.199,0.156,–,–,–,–,–,–,–,–,–,–
A-427,0.463,0.477,0.473,0.499,0.375,0.38,0.323,0.299,0.985,1.06,0.984,–,0.764,1.09,0.938,1.01,0.96,0.927
ABC-1,0.556,0.484,0.65,0.575,0.244,0.195,0.259,0.257,0.289,0.308,0.333,0.272,0.319,0.292,0.346,0.268,0.356,0.228
BEN,0.303,0.295,0.233,0.33,0.312,0.172,0.243,0.271,0.765,0.736,0.875,0.909,0.457,0.944,0.954,0.781,0.85,0.729
CAL-12T,0.823,0.866,0.84,0.839,0.598,0.663,0.654,0.616,1.09,1.07,1.2,–,1.04,1.04,1.2,1.18,1.01,0.825
COR-L23,0.691,1.01,0.761,0.73,0.429,0.465,0.469,0.431,0.827,0.983,1.03,0.779,0.341,1.13,0.982,0.975,1.11,1.04
COR-L 105,0.694,0.678,0.925,0.664,0.541,0.419,0.508,0.528,0.826,0.732,0.791,0.469,0.649,0.818,0.708,0.99,0.877,0.482
Calu-6,–,–,–,–,–,–,–,–,0.99,1.1,0.911,0.886,0.886,1.02,0.993,1.03,1.06,1.05
ChaGo-K-1,0.559,0.557,0.589,0.575,0.458,0.527,0.462,0.462,1.01,1.07,1,–,0.734,0.915,1.21,1.07,0.934,0.916
EBC-1,–,–,–,–,–,–,–,–,0.573,0.662,0.558,0.444,0.487,0.638,0.609,0.503,0.632,0.374
EKVX,0.646,0.72,0.734,0.718,0.269,0.209,0.255,0.209,1.08,1,1.39,0.992,0.971,1.1,0.996,1.02,0.965,0.683
EMC-BAC-2,0.379,0.368,0.421,0.368,0.499,0.609,0.661,0.552,0.882,1.21,1.19,1.08,0.968,1.19,1.14,1.13,1.05,1.06
EPLC-272H,0.279,0.348,0.318,0.292,0.317,0.299,0.35,0.396,1.13,0.987,1.09,–,0.977,1.04,0.949,0.876,0.943,1.04
H3255,0.52,0.629,0.577,0.759,0.366,0.323,0.429,0.434,0.827,0.86,0.895,0.955,0.657,0.829,0.796,0.819,0.845,0.427
HARA,0.552,0.524,0.627,0.404,0.516,0.403,0.43,0.491,1.24,1.26,1.22,1.17,1.14,1.22,1.16,1.18,1.17,1.18
HCC-15,0.677,0.682,0.694,0.693,0.401,0.54,0.494,0.469,1.11,1.02,1.05,–,0.93,1.25,1.08,1.09,1.01,1
HCC-44,0.47,0.71,0.627,0.787,0.31,0.194,0.276,0.322,0.863,0.871,0.959,1.08,0.78,0.934,0.938,0.912,0.936,0.999
HCC-78,0.344,0.359,0.354,0.383,0.695,0.56,0.68,0.719,0.504,0.42,0.661,0.69,0.313,0.485,0.436,0.548,0.416,0.62
HCC-366,1.12,1.01,1.05,0.878,0.653,0.656,0.618,0.659,1.16,1.08,1.15,–,1.15,1.08,1.03,1.1,0.995,1.01
HCC-827,0.666,0.673,0.806,0.782,0.375,0.392,0.414,0.358,0.97,1.03,1.1,1.05,0.972,0.952,1.06,1.12,1.04,0.701
HOP-62,0.816,0.912,0.831,0.773,0.602,0.844,0.756,0.621,0.983,0.62,0.675,0.49,0.922,0.803,0.974,1.01,0.726,0.704
IA-LM,–,–,–,–,–,–,–,–,0.977,0.87,1.08,1.07,0.677,0.925,0.803,0.777,0.867,0.977

Cell Line,relative viability ([1]; first compound 0.08 µM),relative viability ([1]; first compound 0.8 µM),relative viability ([1]; first compound 2.53 µM),relative viability ([1]; first compound 8 µM),relative viability ([2]; first compound 0.08 µM),relative viability ([2]; first compound 0.8 µM),relative viability ([2]; first compound 2.53 µM),relative viability ([2]; first compound 8 µM),relative viability ([3]; first compound 0.04 µM),relative viability ([3]; first compound 0.1265 µM),relative viability ([3]; first compound 0.4 µM),relative viability ([3]; first compound 1.265 µM),relative viability ([3]; first compound 4 µM),relative viability (Tanzisertib + Bortezomib; first compound 0.08 µM),relative viability (Tanzisertib + Bortezomib; first compound 0.253 µM),relative viability (Tanzisertib + Bortezomib; first compound 0.8 µM),relative viability (Tanzisertib + Bortezomib; first compound 2.53 µM),relative viability (Tanzisertib + Bortezomib; first compound 8 µM)
LC-2-ad,–,0.868,0.936,0.908,–,0.676,0.639,0.612,1.06,1.05,1.01,1.03,0.817,1.05,1.08,1.05,1.09,1.01
LCLC-97TM1,0.57,0.508,0.519,0.531,0.328,0.511,0.437,0.396,0.827,0.619,0.764,0.603,0.375,1.13,1.24,0.784,0.957,0.518
LCLC-103H,0.432,0.485,0.447,0.457,0.318,0.351,0.361,0.342,1.13,0.819,1.2,0.915,0.856,1.15,1.06,1.04,1.18,1.16
LK-2,0.264,0.284,0.223,0.209,0.354,0.377,0.547,0.494,–,–,–,–,–,–,–,–,–,–
LOU-NH91,0.696,0.74,0.796,0.727,0.771,0.787,0.867,0.781,0.504,0.56,0.515,0.468,0.429,0.49,0.516,0.493,0.502,0.543
LU99A,0.292,0.291,0.331,0.304,0.748,0.877,0.956,0.874,0.947,1.23,1.23,0.88,0.78,1.29,1.07,1.08,1.19,1.31
LXF-289,0.847,0.829,0.901,0.728,0.449,0.48,0.533,0.496,1.01,0.976,1.07,1.05,0.952,1.1,1.03,1.03,0.977,1.04
NCI-H23,0.676,0.655,0.653,0.67,0.722,0.894,0.828,0.847,1.21,1.17,1.11,–,1.03,1.18,0.979,0.875,1.11,1.17
NCI-H322M,0.608,0.532,0.653,0.592,0.796,0.77,0.856,0.864,1.4,1.38,1.34,–,1.72,1.25,1.21,1.32,1.14,1.18
NCI-H358,0.593,0.713,0.834,0.698,0.199,0.361,0.339,0.28,–,–,–,–,–,–,–,–,–,–
NCI-H441,0.536,0.769,0.736,0.867,0.634,0.947,0.831,0.753,0.599,0.472,0.693,0.57,0.449,0.53,0.409,0.407,0.815,0.471
NCI-H522,0.731,0.813,0.693,0.709,0.552,0.657,0.771,0.689,–,–,–,–,–,–,–,–,–,–
NCI-H1299,–,–,–,–,–,–,–,–,1.02,0.998,0.958,0.938,0.827,1.03,1.02,1.07,1.08,1.13
NCI-H1395,0.603,0.57,0.71,0.694,0.419,0.342,0.419,0.497,–,–,–,–,–,–,–,–,–,–
NCI-H1623,0.451,0.504,0.488,0.42,0.6,0.502,0.642,0.637,–,–,–,–,–,–,–,–,–,–
NCI-H1648,0.242,0.271,0.292,0.245,–,–,–,–,–,–,–,–,–,–,–,–,–,–
NCI-H1703,–,–,–,–,–,–,–,–,0.376,0.281,0.256,–,0.236,0.328,0.326,0.293,0.377,0.248
NCI-H1793,0.261,0.246,0.302,0.23,0.307,0.162,0.441,0.426,–,–,–,–,–,–,–,–,–,–
NCI-H1944,0.41,0.413,0.546,0.423,0.18,0.185,0.209,0.173,–,–,–,–,–,–,–,–,–,–
NCI-H2170,0.611,0.697,0.776,0.686,0.433,0.394,0.456,0.441,–,–,–,–,–,–,–,–,–,–
NCI-H2342,0.627,0.577,0.634,0.674,0.512,0.501,0.688,0.631,–,–,–,–,–,–,–,–,–,–
SK-MES-1,0.51,0.565,0.624,0.593,0.635,0.68,0.634,0.603,–,–,–,–,–,–,–,–,–,–
SW 900,0.51,0.569,0.713,0.464,0.64,0.548,0.738,0.628,–,–,–,–,–,–,–,–,–,–

# Source: the supplement of paper PMC10307832
